Read-outs that look alike come from different tables or passages of the source.
Key:
[1] = system: human cancer cell lines; assay: In vitro studies on a panel of over 20 human cancer cell lines; type: cell-based
[2] = clinical studies in Japan alone; cited from earlier work
[3] = system: A2780/WT (wild-type) cells; assay: Sulforhodamine B (SRB) cytotoxicity assay in A2780/WT cells; type: cell-based; settings: Homo sapiens, A2780, read-out: A2780/WT (nM)
Description: (§1) Each of the testing conditions used in this study in both A2780/WT (wild-type) and A2780/DX5 cells were repeated in five to fifteen experiments that were performed on separate days. Each experiment consisted of one microtiter plate with at least eight individual assays of a given drug treatment condition on the plate. The sulforhodamine B (SRB) assay was used to assess cytotoxicity and absorbance at 570 nm (A570) in order to calculate the percentage of cell control (or percent cell survival) for the various treatment conditions in the plate wells.
Roswell Park Memorial Institute (RPMI 1640) medium, fetal bovine serum (FBS), and L-glutamine were purchased from Gibco BRL. […]
Cells were manipulated in a Class IIA/B3 Biological Safety Cabinet (Forma Scientific) and maintained at 37° C. in a humidified atmosphere containing 5% CO2 in a water-jacketed cell culture incubator (Forma Scientific). Cells were counted using a Coulter-Z1 counter (Beckman-Coulter). […] Percentage of control was correlated to A570 values and determined using a Model EL800 plate reader (Bio-Tek Instruments).
Population doubling times for the two cell lines used in this study encompassed a total of five cell doublings corresponding to approximately 5 days for A2780/WT and A2780/DX5 cells. […] Prior to SRB assays, cell viability was monitored by evaluation of microtiter plate wells. […]

[4] = system: A2780/DX5 cells; assay: Sulforhodamine B (SRB) cytotoxicity assay in A2780/DX5 cells; type: cell-based; settings: for IC50 Ratio: A2780/DX5 versus A2780/WT; for IC50: Homo sapiens, A2780, read-out: A2780/DX5 (nM)
Description: as §1
Roswell Park Memorial Institute (RPMI 1640) medium, fetal bovine serum (FBS), and L-glutamine were purchased from Gibco BRL. Drugs were dissolved in sterile dimethylsulfoxide (DMSO), from American Type Culture Collection (ATCC) for stock solutions (2.5 to 5.0 mM). Subsequent dilutions were made using cell culture medium (prior to adding the drug to cells). SRB was purchased from Sigma and dissolved in 1.0% acetic acid. Trichloroacetic acid was purchased from VWR International.
Cells were manipulated in a Class IIA/B3 Biological Safety Cabinet (Forma Scientific) and maintained at 37° C. in a humidified atmosphere containing 5% CO2 in a water-jacketed cell culture incubator (Forma Scientific). Cells were counted using a Coulter-Z1 counter (Beckman-Coulter). Following drug treatment, plates were washed using a Biomek 2000 station (Beckman) and, following exposure to SRB dye, plates were washed using an automated plate washer (Model EL404, Bio-Tek Instruments). Percentage of control was correlated to A570 values and determined using a Model EL800 plate reader (Bio-Tek Instruments).
Population doubling times for the two cell lines used in this study encompassed a total of five cell doublings corresponding to approximately 5 days for A2780/WT and A2780/DX5 cells. A2780/WT and A2780/DX5 cells were cultured in RPMI 1640 medium supplemented with 10% fetal bovine serum and 1 mM of L-glutamine. Both cell lines were maintained as monolayered cultures in T-25 or T-75 flasks and then seeded to microtiter plate wells for experiments described herein. Prior to SRB assays, cell viability was monitored by evaluation of microtiter plate wells. […]
The sulforhodamine B (SRB) cytotoxicity assay (see, Skehan P, et al., New colorimetric cytotoxicity assay for anticancer-drug screening. J. Natl. Cancer Inst. 82:1107-1112 (1990)) was used to determine the cytotoxic effects of BNP1350, SN-38, topotecan, 9-NH2-CPT, and 9-NO2-CPT on cell growth in vitro. […] Plates were agitated (gently) for 5 minutes and the absorbance values of the SRB dye-protein adduct at a 570 nm wavelength (A570) were determined using an automated microtiter plate reader equipped with an A570 filter (Model EL800, BioTek Instruments).

[5] = cited from earlier work
[6] = system: advanced gastrointestinal cancer; settings: cited from earlier work
[7] = system: advanced malignant melanoma; settings: fifteen patients, 90-360 mg/m^2 repeated every 2 weeks; cited from earlier work
[8] = cited from earlier work; remark: listed apart in the source
[9] = 5-day course 15 mg/m^2 × 5, 9 patients treated
[10] = 5-day course 17 mg/m^2 × 5, 5 patients treated
[11] = 5-day course 20 mg/m^2 × 5, 10 patients treated
[12] = single dose 110 mg/m^2, 2 patients treated
[13] = single dose 120 mg/m^2, 7 patients treated
[14] = single dose 180 mg/m^2, 9 patients treated
[15] = 5-day course (27 patients total), 4 wks
[16] = 5-day course (27 patients total), 8 wks
[17] = 5-day course (27 patients total), 12 wks
[18] = single-dose method (34 patients total), 3 wks
[19] = single-dose method (34 patients total), 6 wks
[20] = single-dose method (34 patients total), 9 wks
[21] = single-dose method (34 patients total), 12 wks

CC[C@@]1(O)C(=O)OCc2c1cc1n(c2=O)Cc2c-1nc1ccccc1c2CC[Si](C)(C)C [Karenitecin (BNP1350), (4S)-4-ethyl-4-hydroxy-11-[2-(trimethylsilyl)ethyl]-1H-pyrano[3′:4′:6,7]indolizino[1,2-b]quinoline-3,14(4H,12H)-dione]
antitumor potency compared with Topotecan or SN-38 [1]: significantly more potent

CCc1c2c(nc3ccc(OC(=O)N4CCC(N5CCCCC5)CC4)cc13)-c1cc3c(c(=O)n1C2)COC(=O)[C@]3(O)CC [CPT-11, 7-ethyl-10-[4-(1-piperidino)-1-piperidino]carbonyloxy camptothecin]
patient deaths directly attributable to drug toxicity [2]: approximately 100 patient deaths

CCOC(=O)COc1ccc2nc3c(c(CC[Si](C)(C)C)c2c1)Cn1c-3cc2c(c1=O)COC(=O)[C@]2(O)CC [Compound 9, 7-(2′-Trimethylsilanyl)ethyl-10-(ethoxycarbonylmethoxy) camptothecin]
IC50 [3]: 73.9 nM | IC50 Ratio [4]: 1.7 | IC50 [4]: 123 nM

CC[C@@]1(O)C(=O)OCc2c1cc1n(c2=O)Cc2c-1nc1ccc(OC(=O)N3CCOCC3)cc1c2CC[Si](C)(C)C [Compound 12, 7-(2′-Trimethylsilanyl)ethyl-10-(4-morpholinecarbonyloxy) camptothecin]
IC50 [3]: 65.6 nM | IC50 Ratio [4]: 2.1 | IC50 [4]: 135 nM

CC[C@@]1(O)C(=O)OCc2c1cc1n(c2=O)Cc2cc3ccccc3nc2-1 [CPT sodium]
No. of patients with cystitis ([5]; 5-day course 11 mg/m^2 × 5, 2 patients treated): 1 patients | No. of patients with cystitis [5, 9]: 4 patients | No. of patients with diarrhea [5, 9]: 1 patients | No. of patients with cystitis [5, 10]: 2 patients | No. of patients with diarrhea [5, 10]: 4 patients | No. of patients with cystitis [5, 11]: 6 patients | No. of patients with diarrhea [5, 11]: 4 patients | No. of patients with diarrhea ([5]; 5-day course 22 mg/m^2 × 5, 1 patient treated): 1 patients | Cystitis, 5-Day Course (% of 27 Patients) ([5]; 5-day course): 48 (P < 0.05) % | Number of patients with cystitis ([5]; single dose 100 mg/m^2, 6 patients treated): 2 patients | Number of patients with cystitis [5, 12]: 1 patients | Number of patients with diarrhea [5, 12]: 1 patients | Number of patients with cystitis [5, 13]: 2 patients | Number of patients with diarrhea [5, 13]: 4 patients | Number of patients with cystitis [5, 14]: 3 patients | Number of patients with diarrhea [5, 14]: 2 patients | Cystitis, Single Dose (% of 34 Patients) ([5]; single dose method): 24% | Objective results: Improved [6, 15]: 1 patients | Objective results: Stable [6, 15]: 12 patients | Objective results: Worse [6, 15]: 14 patients | Objective results: Stable [6, 16]: 7 patients | Objective results: Worse [6, 16]: 20 patients | Objective results: Stable [6, 17]: 6 patients | Objective results: Worse [6, 17]: 21 patients | patients with evidence of partial objective improvement ([6]; after 2 months (8 or 9 weeks), of 61 patients): two | patients who showed improvement ([6]; at 3 months, of 61 patients): none | Objective results: Improved [6, 18]: 4 patients | Objective results: Stable [6, 18]: 17 patients | Objective results: Worse [6, 18]: 13 patients | Objective results: Improved [6, 19]: 2 patients | Objective results: Stable [6, 19]: 11 patients | Objective results: Worse [6, 19]: 21 patients | Objective results: Improved [6, 20]: 2 patients | Objective results: Stable [6, 20]: 8 patients | Objective results: Worse [6, 20]: 24 patients | Objective results: Stable [6, 21]: 6 patients | Objective results: Worse [6, 21]: 28 patients | less pronounced transient tumor regression [7]: three | bladder toxicity dose limiting ([8]; doses of 20 to 30 mg/m^2): three | bladder toxicity, additional patients ([8]; doses of 30 and 44 mg/m^2): two
